Results reported in US20040266723A1, “Antiviral agents for treatment of Flaviviridae infections” (priority 2000, published 2004).
Read-outs that look alike come from different tables or passages of the source. Each block holds one molecule with its values, some of them ahead of it.

Experiments:
MDBK cells = assay: Cytotoxicity in MDBK cells; type: cell-based
Text: (§1) Cytotoxicity testing can be carried out according to standard methods. MDBK, PBM, HepG2, Huh7 and Vero cells were used. […]. […] Afterwards the plates containing the dye are read at 490 nm. Each assay was done in triplicate. Such methodologies are well described and available from the manufacturer (Promega).

BVDV [1] = assay: BVDV real time RT-PCR antiviral assay in MDBK cells; type: cell-based, Bovine viral diarrhea virus (BVDV), strain NADL; details: for virus production / viral RNA versus negative control / max log reduction Viral Load: MDBK cells; for virus production / viral RNA versus negative control: MOI 0.02, 22 hours, real time RT-PCR; for Selectivity Index (24 hrs/24 hrs) CC50/EC90: MDBK CC50 24 hrs / antiviral EC90 24 hrs
Protocol: As one illustration of this method, in the case of BVDV in MDBK cells, in a first step, viral RNA is isolated from 140 μL of the cell culture supernatant by means of a commercially available column (Viral RNA extraction kit, QiaGen, CA). The viral RNA is then eluted from the column to yield a total volume of 60 μL, and subsequently amplified with a quantitative RT-PCR protocol using a suitable primer for the BVDV NADL strain. A quenched fluorescent probe molecule is hybridized to the BVDV DNA, which then undergoes exonucleolytic degradation resulting in a detectable fluorescent signal. Therefore, the RT-PCR amplified DNA was detected in real time by monitoring the presence of fluorescence signals. The TaqMan probe molecule (5′ 6-fam-[…]-tamara 3′ [Sequence ID No. 7] and primers (sense: 5′-[…]-3′ [Sequence ID No. 8]; and antisense: 5′-[…]-3′ [Sequence ID No. 9]) were designed with the aid of the Primer Express software (PE-Applied Biosystems) to be complementary to the BVDV NADL NS5B region. A total of 10 μL of RNA was analyzed in a 50 μL RT-PCR mixture. Reagents and conditions used in quantitative PCR were purchased from PE-Applied Biosystems. The standard curve that was created using the undiluted inoculum virus ranged from 6000 plaque forming units (PFU) to 0.6 PFU per RT-PCR mixture.
Maldin-Darby bovine kidney (MDBK) cells were grown and maintained in a modified eagle medium (DMEM/F12; GibcoBRL), supplemented with 10% heat inactivated horse serum at 37° C. in a humidified, 5% CO2, incubator.
Bovine viral diarrhea virus (BVDV), strain NADL, causes a cytopathogenic effect (CPE) after infection of these cells.
Cells that were not treated with a test compound were considered a negative control, while ribavirin served as a positive control. Viral RNA was extracted and analyzed by real time RT-PCR.
Controls were Ribavirin and the polyoxymetalate HPA-023 in these experiments.

[2] = Cytotoxicity in MDBK cells; type: cell-based
Text: as §1

[3] = Cytotoxicity in HepG2 cells; type: cell-based; details: human
Protocol: (§2) Cytotoxicity testing can be carried out according to standard methods. MDBK, PBM, HepG2, Huh7 and Vero cells were used. […]. After a three day-incubation, cell viability and mitochondrial activity are measured by adding the MTS-dye (Promega), followed by a 3 hours incubation. Afterwards the plates containing the dye are read at 490 nm. Each assay was done in triplicate. Such methodologies are well described and available from the manufacturer (Promega).

BVDV [4] = assay: BVDV real time RT-PCR antiviral assay in MDBK cells; type: cell-based, Bovine viral diarrhea virus (BVDV), strain NADL; details: dose-response, 24 hours post-infection
[5] = Cytotoxicity in CEM cells; details: human, CEM cells
[6] = Cytotoxicity in Vero cells; type: cell-based; details: African green monkey
Protocol: as §2

human IMPDH = assay: IMPDH inhibition (Ki); type: biochemical
in vitro = type: cell-based
Text: as §1

CEM = assay: Cytotoxicity in CEM cells; details: read-out: CEM 7 days CC50; 7 days
PBMC = assay: in vitro; type: cell-based; details: 7 days
Text: as §1

[7] = renal transplanted patients, oral; cited from earlier work
IMPDH = details: literature (WO 95/22538); cited from earlier work
[8] = Toxicity of C2-MAD in Balb/c mice (body weight); type: in vivo; details: Balb/c mice, 10, 30 and 60 mg/kg/day, ten day treatment, versus water
Text: The results of this screening are illustrated in FIG. 4.

[9] = BVDV, 24 hrs, read-out: Antiviral (24 hrs) EC90
[10] = BVDV real time RT-PCR, after 22 hours, tested at 40 μM
[11] = Bovine viral diarrhea virus isolates and strains, MDBK, 22 h
[12] = Bovine viral diarrhea virus isolates and strains, MDBK, 24 h, read-out: Antiviral (24 hrs) EC90
[13] = 7 days, read-out: PBMC 7 days CC50
[14] = 24 hrs, read-out: MDBK (24 hrs) CC50
[15] = Table 2, 3 days, read-out: MDBK (3 Days) CC50

SMILES: COc1c(C)c2c(c(O)c1C/C=C(\C)C=O)C(=O)OC2 [C4-MPAld]
CC50 (MDBK cells): > 100 µM | EC90 (BVDV [1]; [9]): > 100 µM | virus production / viral RNA versus negative control (BVDV [1]): non-active

SMILES: NC(=O)c1ncn([C@@H]2O[C@H](CO)[C@@H](O)[C@H]2O)n1 [Ribavirin]
CC50 at 24 h [2]: > 100 µM | CC50 at 3 days ([2]; Table 1): 4 µM | CC50 at 3 days ([2]; Table 2): 5 µM | CC50 at 3 days [3]: 80 µM | intracellular viral RNA reduction, relative effectiveness (FIG. 9) (BVDV [4]): more effective than C2-MAD | CC50 at 7 days [5]: 75 µM | max log reduction Viral Load (BVDV [1]; [10]): >2 (40 μM) log | EC50 (BVDV [1]; [11]): 0.7 µM | EC90 (BVDV [1]; [11]): 5 µM | EC90 (BVDV [1]; [12]): 2 µM | Selectivity Index (24 hrs/24 hrs) CC50/EC90 (BVDV [1]): 5 | virus production / viral RNA versus negative control (BVDV [1]): almost complete absence of viral RNA | CC50 at 3 days [6]: > 100 µM | Ki (human IMPDH; Table 2, read-out: IMPDH Ki): 0.2 µM | CC50 at 7 days (in vitro; [13]): > 100 µM

SMILES: COc1c(C)c2c(c(O)c1CCO)C(=O)OC2 [C2-MPAlcohol, 6-(2-hydroxyethyl)-7-hydroxy-5-methoxy-4-methylphthalan-1-one]
CC50 (MDBK cells; [14]): > 100 µM | CC50 (MDBK cells; Table 1, 3 days, read-out: MDBK 3 days CC50): 7 µM | CC50 (MDBK cells; [15]): 7 µM | CC50 (CEM): 91 µM | max log reduction Viral Load (BVDV [1]; [10]): 1.96 (40 μM) log | EC90 (BVDV [1]; BVDV real time RT-PCR, after 22 hours, 1-log reduction in viral production, read-out: EC90): 40 µM | EC90 (BVDV [1]; [9]): 40 µM | CC50 (PBMC): > 100 µM

melting point: 210 to 212 °C
SMILES: NC(=O)c1cncc([C@H]2O[C@H](CO)[C@@H](O)[C@H]2O)c1

SMILES: COC(=O)CC/C(C)=C/Cc1c(O)c2c(c(C)c1OC)COC2=O [MPA-O-Me]
CC50 (MDBK cells; [14]): > 100 µM | CC50 (MDBK cells; [15]): 0.4 µM | max log reduction Viral Load (BVDV [1]; BVDV real time RT-PCR, after 22 hours, tested at 100 μM): 3.32 (100 μM) log | EC90 (BVDV [1]; [9]): < 1 µM | Ki (human IMPDH; Table 2, read-out: IMPDH Ki): 0.5 µM

SMILES: COc1c(C)c2c(c(O)c1C/C=C(\C)CCC(=O)OCCN1CCOCC1)C(=O)OC2 [MMF, mycophenolate mofetil]
MPA Tmax [7]: 48 min

SMILES: COc1c(C)c2c(c(O)c1C/C=C(\C)CCCOP(=O)(O)CP(=O)(O)OC[C@H]1O[C@@H](n3cnc4c(N)ncnc43)[C@H](O)[C@@H]1O)C(=O)OC2 [C6-MAD]
CC50 (MDBK cells): > 100 µM | EC90 (BVDV [1]; [9]): > 100 µM | virus production / viral RNA versus negative control (BVDV [1]): non-active | Ki (human IMPDH; Table 2, read-out: IMPDH Ki): 0.3 µM

SMILES: NC(=O)c1cccc(C2OC(CO)C(O)C2O)c1 (stereo not drawn) [Benzamide Riboside]
CC50 at 24 h ([2]; bovine, MDBK cells): 13 µM | CC50 at 3 days ([2]; bovine, MDBK cells, Table 1): 4 µM | CC50 at 3 days ([2]; bovine, MDBK cells, Table 2): 3 µM | CC50 at 3 days ([3]; HepG2 cells): 8 µM | max log reduction Viral Load (BVDV [1]; [10]): >2 (40 μM) log | EC90 (BVDV [1]; [11]): 3 µM | EC90 (BVDV [1]; [12]): 3 µM | Selectivity Index (24 hrs/24 hrs) CC50/EC90 (BVDV [1]): 4 | Ki (human IMPDH; Table 2, read-out: IMPDH Ki): 0.66 µM | CC50 (in vitro): < 17 µM

melting point: 169 to 171 °C
SMILES: N#Cc1cncc([C@@H]2O[C@H](CO)[C@@H](O)[C@H]2O)c1

SMILES: NC(=O)c1ncn([C@@H]2O[C@H](CO)[C@@H](O)[C@H]2O)c1O [Mizoribine]
CC50 at 24 h [2]: > 100 µM | CC50 at 3 days ([2]; Table 2): > 100 µM | EC90 (BVDV [1]; Bovine viral diarrhea virus isolates and strains, MDBK): > 100 µM | EC90 (BVDV [1]; [12]): > 100 µM | Selectivity Index (24 hrs/24 hrs) CC50/EC90 (BVDV [1]): 1 | virus production / viral RNA versus negative control (BVDV [1]): non-active | Ki (human IMPDH; human IMPDH, read-out: Ki): 0.004 µM

SMILES: NC(=O)c1cccc([C@@H]2O[C@H](COP(=O)(O)CP(=O)(O)OCC3OC(n4cnc5c(N)ncnc54)C(F)C3O)[C@@H](O)[C@H]2O)c1 (stereo partly drawn) [F-ara-CH2-BAD]
CC50 (MDBK cells; [14]): > 100 µM | CC50 (MDBK cells; [15]): > 100 µM | EC90 (BVDV [1]; [9]): > 100 µM | virus production / viral RNA versus negative control (BVDV [1]): non-active | Ki (human IMPDH; Table 2, read-out: IMPDH Ki): 175 µM

SMILES: COc1c(C)c2c(c(O)c1C/C=C(\C)CCC(=O)O)C(=O)OC2 [Mycophenolic Acid (MPA), Mycophenolic Acid]
CC50 at 24 h ([2]; bovine, MDBK cells): > 100 µM | CC50 at 3 days ([2]; bovine, MDBK cells, Table 1): 2 µM | CC50 at 3 days ([2]; bovine, MDBK cells, Table 2): 2 µM | CC50 at 7 days [5]: 0.05 µM | max log reduction Viral Load (BVDV [1]; [10]): >2 (40 μM) log | EC90 (BVDV [1]; [11]): 1 µM | EC90 (BVDV [1]; [12]): < 1 µM | virus production / viral RNA versus negative control (BVDV [1]): almost complete absence of viral RNA | IC50 (IMPDH): […] | CC50 at 7 days (in vitro): 75.4 µM

SMILES: COc1c(C)c2c(c(O)c1CC=O)C(=O)OC2 [C2-MPAld]
CC50 (MDBK cells): > 100 µM | EC90 (BVDV [1]; [9]): > 100 µM | virus production / viral RNA versus negative control (BVDV [1]): non-active

SMILES: NC(=O)c1csc(C2OC(COP(=O)(O)CP(=O)(O)OCC3OC(n4cnc5c(N)ncnc54)C(O)C3O)C(O)C2O)n1 (stereo not drawn) [β-CH2-TAD]
CC50 at 24 h ([2]; bovine, MDBK cells): > 100 µM | CC50 at 3 days ([2]; bovine, MDBK cells, Table 1): 70 µM | CC50 at 3 days ([2]; bovine, MDBK cells, Table 2): 70 µM | CC50 at 7 days [5]: 47.8 µM | max log reduction Viral Load (BVDV [1]; [10]): 0.94 (40 μM) log | EC90 (BVDV [1]; [12]): > 100 µM | Selectivity Index (24 hrs/24 hrs) CC50/EC90 (BVDV [1]): 1 | Ki (human IMPDH; Table 2, read-out: IMPDH Ki): 0.11 µM | CC50 at 7 days (in vitro): > 100 µM

SMILES: NC(=O)c1csc([C@@H]2O[C@H](CO)[C@@H](O)[C@H]2O)n1 [Tiazofurin]
CC50 at 24 h [2]: > 100 µM | CC50 at 3 days ([2]; Table 1): 25 µM | CC50 at 3 days ([2]; Table 2): 25 µM | CC50 at 3 days [3]: > 100 µM | CC50 at 7 days [5]: 73.4 µM | max log reduction Viral Load (BVDV [1]; [10]): >2 (40 μM) log | EC90 (BVDV [1]; [11]): 30 µM | EC90 (BVDV [1]; [12]): 7 µM | Selectivity Index (24 hrs/24 hrs) CC50/EC90 (BVDV [1]): 14 | virus production / viral RNA versus negative control (BVDV [1]): almost complete absence of viral RNA | Ki (human IMPDH; Table 2, read-out: IMPDH Ki): 0.11 µM | CC50 at 7 days (in vitro; [13]): 79.5 µM

SMILES: NC(=O)c1ncn([C@H]2O[C@@H](CO)[C@H](O)[C@@H]2O)n1 [L-Ribavirin]
CC50 (MDBK cells; [14]): > 100 µM | CC50 (MDBK cells; [15]): > 100 µM | EC90 (BVDV [1]; [9]): > 100 µM

SMILES: Nc1nc2c(ncn2[C@@H]2O[C@H](CO)[C@@H](O)[C@H]2O)c(=O)[nH]1 [guanosine]
virus production / viral RNA versus negative control (BVDV [1]): non-active

SMILES: COc1c(C)c2c(c(O)c1CCOP(=O)(O)CP(=O)(O)OC[C@H]1O[C@@H](n3cnc4c(N)ncnc43)C(O)[C@H]1O)C(=O)OC2 (stereo partly drawn) [C2-MAD]
CC50 at 24 h [2]: > 100 µM | CC50 at 3 days ([2]; Table 1): 50 µM | CC50 at 3 days ([2]; Table 2): 9 µM | CC50 at 7 days [5]: 17.7 µM | max log reduction Viral Load (BVDV [1]; [10]): 1.9 (40 μM) log | toxic effects: weight gain or loss (FIG. 4) [8]: does not contribute to significant weight gain or loss | CC50 at 7 days (in vitro; [13]): 45.9 µM
